Patent US7638547B2, “Cis-alkoxy-substituted spirocyclic 1H-pyrrolidine-2,4-dione derivatives serving as pesticides” (Bayer CropScience AG, priority 2002, dated 2009)

Legend:
[1] = system: greenhouse red spider mite (Tetranychus urticae); assay: Tetranychus Test, OP-resistant/spray treatment (Example I); format: in vivo; details: 100 ppm active compound, bean leaf discs sprayed, OP-resistant
Method: Solvents: 78 parts by weight of acetone
• 1.5 parts by weight of dimethylformamide Emulsifier: 0.5 part by weight of alkylaryl polyglycol ether
After the desired period of time, the activity in % is determined.

[2] = system: larvae of the mustard beetle (Phaedon cochleariae); assay: Phaedon Larvae Test (Example G); details: 100 ppm active compound, cabbage leaves dipped
[3] = system: caterpillars of the armyworm (Spodoptera frugiperda); assay: Spodoptera frugiperda Test (Example H); format: in vivo; details: 100 ppm active compound, cabbage leaves dipped
Excerpt: (§1) Solvent: 7 parts by weight of dimethylformamide

[4] = system: cotton aphid (Aphis gossypii); assay: Aphis gossypii Test (Example A); format: in vivo; details: 20 ppm active compound, cotton leaves dipped
Excerpt: as §1

[5] = system: larvae of the mustard beetle (Phaedon cochleariae); assay: Phaedon Larvae Test (Example C); details: cabbage leaves dipped
[6] = system: Heliothis virescens caterpillars; assay: Heliothis virescens Test (Example B); format: in vivo; details: 500 ppm active compound, soybean shoots dipped
Excerpt: as §1

[7] = system: caterpillars of the diamondback moth (Plutella xylostella/resistant strain); assay: Plutella Test, resistant strain (Example D); format: in vivo; details: 4 ppm active compound, cabbage leaves dipped
Excerpt: as §1

[8] = system: peach aphid (Myzus persicae); assay: Myzus Test (Example F); format: in vivo; details: 4 ppm active compound, cabbage leaves dipped
Excerpt: as §1

[9] = system: greenhouse red spider mite (Tetranychus urticae); assay: Tetranychus Test, OP-resistant/dip treatment (Example J); format: in vivo; details: 4 ppm active compound, bean plants dipped, OP-resistant

Question: Which “Kill rate in % after 4^d” value [1] does the source give for CCOC1CCC2(CC1)NC(=O)C(c1cc(C)ccc1Cl)=C2OC(=O)C(C)C (stereo not drawn) here?
Answer: 70%

Question: For CO[C@H]1CC[C@]2(CC1)NC(=O)C(c1cc(C)ccc1C)=C2O [Example I-a-1], which “Kill rate in % after 7^d” value [2] is on record?
Answer: 100%

Question: And the “Kill rate in % after 7^d” value [3]?
Answer: 50%

Question: Which results are given for CCOC(=O)OC1=C(c2cc(C)ccc2C)C(=O)N[C@]12CC[C@@H](OC)CC2 [Example I-c-1]?
Answer: Kill rate in % after 6^d [4]: 90%; Kill rate in % after 7^d ([5]; 20 ppm active compound): 80%; Kill rate in % after 7^d ([5]; 100 ppm active compound): 100%

Question: Which “Kill rate in % after 6^d” value [6] does the source give for CCOC(=O)OC1=C(c2cc(C)ccc2Br)C(=O)N[C@]12CC[C@@H](OC)CC2 [Example I-c-2] here?
Answer: 100%

Question: What about the “Kill rate in % after 6^d” value [7] of the same compound?
Answer: 100%

Question: What does the source list for CCOC(=O)OC1=C(c2cc(Br)ccc2C)C(=O)N[C@]12CC[C@@H](OC)CC2 [Example I-c-4]?
Answer: Kill rate in % after 7^d [2]: 25%; Kill rate in % after 6^d [8]: 50%; Kill rate in % after 7^d [3]: 20%; Kill rate in % after 7^d [9]: 40%
